In data set [1] the test system is LL. Description: Soft agar colony formation disk diffusion assay. Type of data set: cell-based, murine. The method, boiled down: (§1)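 Anti-clonogenic activity is scored as the distance from the drug-loaded disk edge to the closest colony of more than 50 cells. Solid tumour and leukaemia lines are plated in separate dishes in two-layer soft agar and incubated 10-20 days at 37° C.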
For orientation: Agar diffusion results depend on both activity and mobility in agar.

Data set [2] relates to P388/ADR. Description: Soft agar colony formation disk diffusion assay. Type of data set: cell-based, murine. The gist of the method:
as §1

The test system of data set [3] is M5076. Put plainly: Soft agar colony formation disk diffusion assay. Type of data set: cell-based, murine. The method, boiled down: as §1
For data set [4], the system named is P388. Put plainly: Soft agar colony formation disk diffusion assay. Type of data set: cell-based, murine. The method, boiled down: as §1
Data set [5] concerns B16. Put plainly: Soft agar colony formation disk diffusion assay. Type of data set: cell-based, murine. The gist of the method: as §1
The test system of data set [6] is LOX. Description: Microculture tetrazolium assay. It counts as cell-based. Conditions: read-out: IC50.
The test system of data set [7] is MATB.WT. Put plainly: Soft agar colony formation disk diffusion assay. It counts as cell-based, rat. The gist of the method:
as §1

The subject of data set [8] is MATB/ADR. Description: Soft agar colony formation disk diffusion assay. Type of data set: cell-based, rat. The method, boiled down:
as §1

The test system of data set [9] is NSC Lung. Put plainly: NCI assay, average per cancer type. The settings on record: Homo sapiens.
Data set [10] deals with Renal. Description: NCI assay, average per cancer type. The settings on record: Homo sapiens.
The test system of data set [11] is SC Lung. Put plainly: NCI assay, average per cancer type. Conditions: Homo sapiens.
Data set [12] relates to Colon. Put plainly: NCI assay, average per cancer type. The settings on record: Homo sapiens.
Data set [13] concerns solid tumors. Description: NCI assay, mean potency in solid tumors.
Data set [14] relates to tumor cell lines. Description: NCI sulforhodamine B assay, all cell lines. The settings on record: Homo sapiens. In general terms: In SRB staining, fixed cells bind dye roughly in proportion to their protein.
Where [15] appears, read: 48 h, read-out: Average LOG10 LC50.

The text below walks through data of patent US5593970A, “Heterocyclic anthracycline analogs” (priority 1994, dated 1997).

Counter-ions that a name gives are not always drawn.

A word on the IC50: it is the point on the concentration scale where inhibition reaches its midpoint.

As to “3-(2-hydroxy)aceto-6-hydroxy-1,2,3,4-tetrahydro-(2-oxygen)naphthacene-5,12-dione and 3-(2-hydroxy)aceto-11-hydroxy-1,2,3,4-tetrahydro-(2-oxygen)naphthacene-5,12-dione [BCH-694]”, the zone of inhibition in data set [1] (100 μg/DISK) is recorded as 30.5 ± 8.6 Zone Units; in data set [2] (10 μg/DISK), 6.1 ± 8.6 Zone Units; in [2] (100 μg/DISK) it was 39.6 ± 12.9 Zone Units; in data set [3] (10 μg/DISK) it was 27.4 ± 4.3 Zone Units; in data set [3] (100 μg/DISK), 137.2 ± 99.2 Zone Units; in data set [4] (10 μg/DISK) it was 67.1 ± 8.6 Zone Units. Besides, the zone of inhibition in data set [4] (100 μg/DISK) is 115.9 ± 94.8 Zone Units; in data set [5] (10 μg/DISK), 0 Zone Units; in [5] (100 μg/DISK) it was 128.0 ± 26.0 Zone Units; in data set [7] (10 μg/DISK), 76.2 ± 2.5 Zone Units; in [7] (100 μg/DISK), 207.0 ± 33.9 Zone Units; in [8] (10 μg/DISK), 27.4 ± 4.3 Zone Units. The zone of inhibition in data set [8] (100 μg/DISK) amounted to 213.5 ± 43.1 Zone Units. The IC50 in data set [6] came to 15 µM.

As for “3-carbomethoxy-6-hydroxy-1,2,3,4-tetrahydro-(2-sulfur)naphthacene-5,12-dione and 3-carbomethoxy-11-hydroxy-1,2,3,4-tetrahydro(2-sulfur)naphthacene-5,12-dione [BCH-693]”, the zone of inhibition in data set [1] (100 μg/DISK) stood at 45.7 ± 21.5 Zone Units; in data set [2] (10 μg/DISK) it was 20.0 ± 0.0 Zone Units; in data set [2] (100 μg/DISK) it was 76.5 ± 21.9 Zone Units; in data set [3] (10 μg/DISK), 27.4 ± 4.3 Zone Units; in data set [3] (100 μg/DISK), 51.8 ± 12.9 Zone Units; in data set [4] (10 μg/DISK) it was 120.0 ± 0.0 Zone Units. Moreover, the zone of inhibition is on record as 400.0 Zone Units in [4] (100 μg/DISK); 0 Zone Units in data set [5] (10 μg/DISK); 27.4 ± 4.3 Zone Units in data set [5] (100 μg/DISK); 0 Zone Units in data set [7] (10 μg/DISK); 42.7 ± 8.8 Zone Units in data set [7] (100 μg/DISK); 0 Zone Units in [8] (10 μg/DISK). In addition, the zone of inhibition in [8] (100 μg/DISK) is 67.1 ± 8.6 Zone Units. In addition, the IC50 in [6] turned out to be 48 µM.

In the case of `COC(=O)[C@@H]1CC2=C(C(=O)c3c(c(OC)c4ccccc4c3O)C2=O)[C@@H](O[C@H]2C[C@H](NC(=O)C(F)(F)F)[C@H](O)[C@H](C)O2)O1` (mixture of isomers) [BCH-674, (1'S,1S,3R) and 1'S,1R,3S) Methyl(11-hydroxy-6-methoxy-1-[2',3',6'-trideoxy-3-trifluoroacetamido-4'-hydroxy-L-lyxohexopyranose]-5,12-dioxo-3,4,5,12-tetrahydroanthra-ceno[2,3-c]pyran-3-yl) formate], the CC50 in data set [9] (setting [15]) was 69.2 µM; in [10] (setting [15]) it was 57.5 µM; in data set [11] (setting [15]), 120 µM; in [12] (setting [15]), 97.7 µM; in data set [13] (Homo sapiens, 48 h, read-out: Average LOG10 LC50, Mean Potency in solid tumors), 81.3 µM; in data set [14] (48 h, read-out: Log10 LC50, Mean / MG-MID, all cell lines (converted)), 67.6 µM. Moreover, the GI50 in [9] (read-out: Average LOG10 GI50) was 9.33 µM; in data set [10] (read-out: Average LOG10 GI50), 8.91 µM; in data set [11] (read-out: Average LOG10 GI50), 13.2 µM; in data set [12] (read-out: Average LOG10 GI50), 13.5 µM; in data set [13] (Homo sapiens, read-out: Average LOG10 GI50, Mean Potency in solid tumors), 12.3 µM; in data set [14] (read-out: Log10 GI50, Mean / MG-MID, all cell lines (converted)) it was 12.3 µM. Further, the zone of inhibition was found to be 54.9 ± 8.6 Zone Units in data set [1] (10 μg/DISK); 115.9 ± 8.0 Zone Units in data set [1] (100 μg/DISK); 0 Zone Units in data set [2] (10 μg/DISK); 150.0 ± 8.0 Zone Units in data set [2] (100 μg/DISK); 30.5 ± 25.8 Zone Units in data set [4] (10 μg/DISK); 137.2 ± 38.8 Zone Units in [4] (100 μg/DISK). The zone of inhibition in [5] (10 μg/DISK) is 91.5 ± 60.3 Zone Units; in data set [5] (100 μg/DISK) it was 122.0 ± 86.2 Zone Units; in data set [7] (10 μg/DISK) it was 30.5 ± 13.0 Zone Units; in data set [7] (100 μg/DISK), 198.2 ± 21.5 Zone Units; in data set [8] (10 μg/DISK) it was 24.4 ± 8.6 Zone Units; in data set [8] (100 μg/DISK) it was 213.5 ± 25.8 Zone Units. In addition, the 50% inhibitory concentration (IC50) in data set [6] worked out at 2.06 µM. The “Average LOG10 LC50, Mean Potency in solid tumors” value in data set [13] (solid tumors, 2880 min) was -4.09 ± 0.11 log molar. Moreover, the IC100 in [14] (48 h, read-out: Log10 TGI, Mean / MG-MID, all cell lines) is 30.2 µM.

Take `COC(=O)[C@H]1CC2=C(C(=O)c3c(cc4ccccc4c3O)C2=O)[C@H](O[C@H]2C[C@H](NC(=O)C(F)(F)F)[C@H](O)[C@H](C)O2)O1` (mixture of isomers) [BCH-692, (1'S,1S,3R) and (1'S,1R,3S) Methyl[11-hydroxy-1-(2',3',6'-trideoxy-3'-trifluoroacetamido-4'-hydroxy-L-lyxohexopyranose)-5,12-dioxo-3,4,5,12-tetrahydro-anthraceno[2,3-c]pyran-3-yl]formate]: the zone of inhibition was determined as 80.5 ± 20.5 Zone Units in [1] (10 μg/DISK); 140.3 ± 40.5 Zone Units in [1] (100 μg/DISK); 25.0 ± 10.0 Zone Units in data set [2] (10 μg/DISK); 150.5 ± 50.0 Zone Units in data set [2] (100 μg/DISK); 50.0 ± 25.5 Zone Units in data set [3] (10 μg/DISK); 200.0 ± 100.0 Zone Units in data set [3] (100 μg/DISK). In addition, the zone of inhibition in data set [4] (10 μg/DISK) came to 50.5 ± 10.9 Zone Units; in data set [4] (100 μg/DISK), 180.0 ± 50.6 Zone Units; in data set [5] (10 μg/DISK), 0 Zone Units; in [5] (100 μg/DISK), 200.0 ± 55.0 Zone Units; in data set [7] (10 μg/DISK), 150.0 ± 18.5 Zone Units; in data set [7] (100 μg/DISK) it was 400.5 ± 100.0 Zone Units. Besides, the zone of inhibition in data set [8] (10 μg/DISK) is reported as 0 Zone Units; in data set [8] (100 μg/DISK), 180.0 ± 50.5 Zone Units. For the same compound, the IC50 in data set [6] is 3.89 µM.

As to `CCOC(=O)C1CC2=C(CO1)C(=O)c1c(c(O)c3ccccc3c1OC(C)=O)C2=O` (stereo not drawn) [BCH-654, Ethyl[11-acetoxy-6-hydroxy-5,12-dioxo-3,4,5,12-tetrahydroanthraceno(2,3-c)pyran-3-yl]formate], the zone of inhibition in data set [1] (100 μg/DISK), in data set [2] (10 μg/DISK), in data set [2] (100 μg/DISK), in data set [3] (10 μg/DISK), in [3] (100 μg/DISK) and in [4] (10 μg/DISK) was 0 Zone Units throughout. The zone of inhibition is recorded as 0 Zone Units in data set [4] (100 μg/DISK); 0 Zone Units in data set [5] (10 μg/DISK); 137.4 ± 21.8 Zone Units in data set [5] (100 μg/DISK); 0 Zone Units in data set [7] (10 μg/DISK); 152.5 ± 25.8 Zone Units in data set [7] (100 μg/DISK); 0 Zone Units in data set [8] (10 μg/DISK). Further, the zone of inhibition in data set [8] (100 μg/DISK) turned out to be 134.3 ± 17.3 Zone Units. In data set [6], the IC50 came out at 70.5 µM.

On to `COC(=O)[C@@H]1CC2=C(C(=O)c3c(cc4ccccc4c3O)C2=O)[C@@H](O[C@H]2C[C@H](NC(=O)C(F)(F)F)[C@H](O)[C@H](C)O2)O1` [BCH-691, (1'S,1R,3S)-Methyl-{11-hydroxy-1-(2',3',6'-trideoxy-3'-trifluoroacetamido-4'-hydroxy-L-lyxoheoxpyranose)-5,12-dioxo-3,4,5,12-tetrahydroanthraceno[2,3-c]pyran-3-yl}formate], for which the zone of inhibition in data set [1] (10 μg/DISK) is on record as 50.6 ± 25.5 Zone Units; in [1] (100 μg/DISK) it was 180.0 ± 120.0 Zone Units; in data set [2] (10 μg/DISK), 50.0 ± 10.0 Zone Units; in data set [2] (100 μg/DISK), 98.0 ± 15.0 Zone Units; in [3] (10 μg/DISK), 120.0 ± 28.8 Zone Units; in data set [3] (100 μg/DISK), 220.0 ± 50.8 Zone Units. In addition, the zone of inhibition worked out at 100.5 ± 50.0 Zone Units in data set [4] (10 μg/DISK); 200.2 ± 50.0 Zone Units in data set [4] (100 μg/DISK); 114.0 ± 30.2 Zone Units in data set [5] (10 μg/DISK); 250.0 ± 58.0 Zone Units in data set [5] (100 μg/DISK); 120.0 ± 50.5 Zone Units in data set [7] (10 μg/DISK); 380.0 ± 120.0 Zone Units in data set [7] (100 μg/DISK). Also, the zone of inhibition is 0 Zone Units in data set [8] (10 μg/DISK) and 200.0 ± 95.0 Zone Units in data set [8] (100 μg/DISK). Further, the concentration for half-maximal inhibition (IC50) in data set [6] is 1.37 µM.
